Positions of bridges follow the written chain, without caps; N, C: chain ends. Residues, ends and D or L forms follow the SMILES beside them. Chains are numbered I, II in the order given. *: point of attachment. Mob = COc1ccc(C*)cc1; Acm = CC(=O)NC*
Columns and labels:
human type II PLA₂ [1] = target: T1, human type II PLA₂ (Homo sapiens, UniProt P14555); experiment: Inhibition of binding between heparin and human II-type PLA₂ (heparin-bound plate, biotinated PLA₂)
T1 construct: made in house; host or cells: Sf9 insect cells, baculovirus (AcNPV), vector pAcTJI1; purified from culture supernatant
T1 sequence (P14555 21-144): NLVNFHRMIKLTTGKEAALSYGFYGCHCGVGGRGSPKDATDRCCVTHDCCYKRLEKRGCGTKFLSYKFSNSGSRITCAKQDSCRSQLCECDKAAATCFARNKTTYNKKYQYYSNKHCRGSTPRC
Experimental: 500 µg of human type II (non-pancreatic) purified in Reference Example 1 was reacted with 2 ml of a solution of 5 mM sulfosuccinyl 6-(biotinamide hexose) in 0.1M NaHCO₃ at a room temperature for one hour, and the product was purified by a heparin Sepharose column to obtain biotinated human type II PLA₂.
50 µl of a phosphate buffered saline (PBS) containing 50 µg/ml poly-L-lysine was added to each well of a 96-well ELISA plate, and after incubation at room temperature for an hour, each well was twice washed with PBS, 50 µl of PBS solution containing 20 µg/ml heparin was added to each well, and a reaction was further carried out at a room temperature for an hour. Each well was twice washed with PBS, 200 µl of PBS solution containing 30 mg/ml bovine serum albumin (BSA) was added to each well, and after reaction at 37°C for an hour, the plate was stored at 4°C.
To each well of a peparin-bound plate prepared in Reference Example 3, 50 µl of a solution containing a peptide obtained in Examples 1 to 10 was added. After incubating at room temperature for 45 minutes, 50 µg/ml biotinated human II-type PLA₂ obtained in Example 2 was added thereon, and reaction was further carried out at room temperature for an hour. Each well was washed three times with PBS containing 0.05% Tween 20, 50 µl of a 3% BSA/PBS solution containing alkaline phosphatase-conjugated streptoavidin (Taga, ×2000 dilution) was added thereon, and a reaction was carried out at a room temperature for an hour. Each well was washed three times with PBS containing 0.05% Tween 20, 100 µl of a 1 mM p-nitrophenylphosphate/1M ethanolamine aqueous solution (pH 9.8) was added thereon, and a reaction was carried out at room temperature for an hour. Absorption of reaction mixture was measured at 405 nm using a microplate reader (Molecular Device Inc). A result is shown in Fig. 9, and IC₅₀ (µM) was also obtained.

human type II PLA₂ [2] = target: T1, human type II PLA₂; experiment: Enzyme inhibition of human type II PLA₂ in the presence of heparin, radiolabeled synthetic phospholipid (method of Dole); format: biochemical; conditions: PLA₂ enzyme 200 ng/ml; for inhibition at 5 µg/mL / remaining activity at 5 µg/mL: peptide 5 µg/ml; for inhibition at 10 µg/mL / remaining activity at 10 µg/mL: peptide 10 µg/ml; for inhibition at 50 µg/mL / remaining activity at 50 µg/mL: peptide 50 µg/ml; for inhibition at 100 µg/mL / remaining activity at 100 µg/mL: peptide 100 µg/ml
human type II PLA₂ [3] = target: T1, human type II PLA₂; experiment: Enzyme inhibition of human type II PLA₂ in the presence of heparin, radioactive phospholipid of E. coli origin; format: biochemical; conditions: heparin 10 µg/ml, PLA₂ enzyme 10 ng/ml
[4] = heparin 50 µg/ml, read-out: PLA₂enzyme activity (%)
[5] = heparin 10 µg/ml, read-out: PLA₂enzyme activity (%)

inhibition at 5 µg/mL (human type II PLA₂ [2]; heparin 50 µg/ml) [%] | remaining activity at 5 µg/mL (human type II PLA₂ [2]; [4]) [%] | inhibition at 10 µg/mL (human type II PLA₂ [2]; heparin 50 µg/ml) [%] | remaining activity at 10 µg/mL (human type II PLA₂ [2]; [4]) [%] | inhibition at 50 µg/mL (human type II PLA₂ [2]; heparin 50 µg/ml) [%] | remaining activity at 50 µg/mL (human type II PLA₂ [2]; [4]) [%] | inhibition at 100 µg/mL (human type II PLA₂ [2]; heparin 50 µg/ml) [%] | remaining activity at 100 µg/mL (human type II PLA₂ [2]; [4]) [%] | SMILES | further results
– | – | – | – | – | – | – | – | COc1ccc(CSC[C@H](NC(=O)CNC(=O)[C@H](CCCNC(=N)N)NC(=O)[C@@H](N)CCCCN)C(=O)NCC(=O)N[C@H](C(=O)N[C@@H](CCCCN)C(=O)N[C@@H](Cc2ccccc2)C(=O)N[C@@H](CC(C)C)C(=O)N[C@@H](CO)C(=O)N[C@@H](Cc2ccc(O)cc2)C(=O)N[C@@H](CCCCN)C(=O)N[C@@H](Cc2ccccc2)C(=O)N[C@@H](CO)C(=O)N[C@@H](CS)C(=O)O)[C@@H](C)O)cc1 [Peptide (1)] (H-KRGC(Mob)GTKFLSYKFSC-OH) | IC50 (human type II PLA₂ [1]): 1.4 µM
25 | 75 | 52 | 48 | 81 | 19 | 89 | 11 | COc1ccc(CSC[C@H](NC(=O)CNC(=O)[C@H](CCCNC(=N)N)NC(=O)[C@@H](N)CCCCN)C(=O)NCC(=O)N[C@H](C(=O)N[C@@H](CCCCN)C(=O)N[C@@H](Cc2ccccc2)C(=O)N[C@@H](CC(C)C)C(=O)N[C@@H](CO)C(=O)N[C@@H](Cc2ccc(O)cc2)C(=O)N[C@@H](CCCCN)C(=O)N[C@@H](Cc2ccccc2)C(=O)N[C@@H](CO)C(=O)N[C@@H](CSSC[C@H](NC(=O)[C@H](CO)NC(=O)[C@H](Cc2ccccc2)NC(=O)[C@H](CCCCN)NC(=O)[C@H](Cc2ccc(O)cc2)NC(=O)[C@H](CO)NC(=O)[C@H](CC(C)C)NC(=O)[C@H](Cc2ccccc2)NC(=O)[C@H](CCCCN)NC(=O)[C@@H](NC(=O)CNC(=O)[C@H](CSCc2ccc(OC)cc2)NC(=O)CNC(=O)[C@H](CCCNC(=N)N)NC(=O)[C@@H](N)CCCCN)[C@@H](C)O)C(=O)O)C(=O)O)[C@@H](C)O)cc1 [Peptide (2)] (I: H-KRGC(Mob)GTKFLSYKFSC-OH / II: H-KRGC(Mob)GTKFLSYKFSC-OH; disulfide I:15-II:15) | –
– | – | – | – | – | – | – | – | COc1ccc(CSC[C@H](NC(=O)[C@H](CO)NC(=O)[C@H](Cc2ccccc2)NC(=O)[C@H](CCCCN)NC(=O)[C@H](Cc2ccc(O)cc2)NC(=O)[C@H](CO)NC(=O)[C@H](CC(C)C)NC(=O)[C@H](Cc2ccccc2)NC(=O)[C@H](CCCCN)NC(=O)[C@@H](NC(=O)CNC(=O)[C@H](CS)NC(=O)CNC(=O)[C@H](CCCNC(=N)N)NC(=O)[C@@H](N)CCCCN)[C@@H](C)O)C(=O)O)cc1 [Peptide (3)] (H-KRGCGTKFLSYKFSC(Mob)-OH) | IC50 (human type II PLA₂ [1]): 2.7 µM
43 | 57 | 63 | 37 | 78 | 22 | 82 | 18 | CC(=O)NCSC[C@H](NC(=O)CNC(=O)[C@H](CCCNC(=N)N)NC(=O)[C@@H](N)CCCCN)C(=O)NCC(=O)N[C@H](C(=O)N[C@@H](CCCCN)C(=O)N[C@@H](Cc1ccccc1)C(=O)N[C@@H](CC(C)C)C(=O)N[C@@H](CO)C(=O)N[C@@H](Cc1ccc(O)cc1)C(=O)N[C@@H](CCCCN)C(=O)N[C@@H](Cc1ccccc1)C(=O)N[C@@H](CO)C(=O)N[C@@H](CSSC[C@H](NC(=O)[C@H](CO)NC(=O)[C@H](Cc1ccccc1)NC(=O)[C@H](CCCCN)NC(=O)[C@H](Cc1ccc(O)cc1)NC(=O)[C@H](CO)NC(=O)[C@H](CC(C)C)NC(=O)[C@H](Cc1ccccc1)NC(=O)[C@H](CCCCN)NC(=O)[C@@H](NC(=O)CNC(=O)[C@H](CSCNC(C)=O)NC(=O)CNC(=O)[C@H](CCCNC(=N)N)NC(=O)[C@@H](N)CCCCN)[C@@H](C)O)C(=O)O)C(=O)O)[C@@H](C)O [Peptide (11)] (I: H-KRGC(Acm)GTKFLSYKFSC-OH / II: H-KRGC(Acm)GTKFLSYKFSC-OH; disulfide I:15-II:15) | –
42 | 58 | 62 | 38 | 81 | 19 | 86 | 14 | CC(=O)NCSC[C@H](NC(=O)[C@H](CO)NC(=O)[C@H](Cc1ccccc1)NC(=O)[C@H](CCCCN)NC(=O)[C@H](Cc1ccc(O)cc1)NC(=O)[C@H](CO)NC(=O)[C@H](CC(C)C)NC(=O)[C@H](Cc1ccccc1)NC(=O)[C@H](CCCCN)NC(=O)[C@@H](NC(=O)CNC(=O)[C@H](CSSC[C@H](NC(=O)CNC(=O)[C@H](CCCNC(=N)N)NC(=O)[C@@H](N)CCCCN)C(=O)NCC(=O)N[C@H](C(=O)N[C@@H](CCCCN)C(=O)N[C@@H](Cc1ccccc1)C(=O)N[C@@H](CC(C)C)C(=O)N[C@@H](CO)C(=O)N[C@@H](Cc1ccc(O)cc1)C(=O)N[C@@H](CCCCN)C(=O)N[C@@H](Cc1ccccc1)C(=O)N[C@@H](CO)C(=O)N[C@@H](CSCNC(C)=O)C(=O)O)[C@@H](C)O)NC(=O)CNC(=O)[C@H](CCCNC(=N)N)NC(=O)[C@@H](N)CCCCN)[C@@H](C)O)C(=O)O [Peptide (13)] (I: H-KRGCGTKFLSYKFSC(Acm)-OH / II: H-KRGCGTKFLSYKFSC(Acm)-OH; disulfide I:4-II:4) | –
59 | 41 | 72 | 28 | 82 | 18 | 90 | 10 | CC(C)C[C@@H]1NC(=O)[C@H](Cc2ccccc2)NC(=O)[C@H](CCCCN)NC(=O)[C@H]([C@@H](C)O)NC(=O)CNC(=O)[C@@H](NC(=O)CNC(=O)[C@H](CCCNC(=N)N)NC(=O)[C@@H](N)CCCCN)CSSC[C@H](NC(=O)CNC(=O)[C@H](CCCNC(=N)N)NC(=O)[C@@H](N)CCCCN)C(=O)NCC(=O)N[C@@H]([C@@H](C)O)C(=O)N[C@@H](CCCCN)C(=O)N[C@@H](Cc2ccccc2)C(=O)N[C@@H](CC(C)C)C(=O)N[C@@H](CO)C(=O)N[C@@H](Cc2ccc(O)cc2)C(=O)N[C@@H](CCCCN)C(=O)N[C@@H](Cc2ccccc2)C(=O)N[C@@H](CO)C(=O)N[C@H](C(=O)O)CSSC[C@@H](C(=O)O)NC(=O)[C@H](CO)NC(=O)[C@H](Cc2ccccc2)NC(=O)[C@H](CCCCN)NC(=O)[C@H](Cc2ccc(O)cc2)NC(=O)[C@H](CO)NC1=O [Peptide (16)] (I: H-KRGCGTKFLSYKFSC-OH / II: H-KRGCGTKFLSYKFSC-OH; disulfide I:4-II:4, I:15-II:15) | inhibition at 1 µg/mL (human type II PLA₂ [3]; peptide 1 µg/ml): 88%; remaining activity at 1 µg/mL (human type II PLA₂ [3]; peptide 1 µg/ml): 12%; inhibition at 5 µg/mL (human type II PLA₂ [3]; peptide 5 µg/ml): 97%; remaining activity at 5 µg/mL (human type II PLA₂ [3]; peptide 5 µg/ml): 3%; inhibition at 10 µg/mL (human type II PLA₂ [3]; peptide 10 µg/ml): 98%; remaining activity at 10 µg/mL (human type II PLA₂ [3]; peptide 10 µg/ml): 2%
– | – | – | – | – | – | – | – | CC(C)C[C@@H]1NC(=O)[C@H](Cc2ccccc2)NC(=O)[C@H](CCCCN)NC(=O)[C@H]([C@@H](C)O)NC(=O)CNC(=O)[C@@H](NC(=O)CNC(=O)[C@H](CCCNC(=N)N)NC(=O)[C@@H](N)CCCCN)CSSC[C@@H](C(=O)O)NC(=O)[C@H](CO)NC(=O)[C@H](Cc2ccccc2)NC(=O)[C@H](CCCCN)NC(=O)[C@H](Cc2ccc(O)cc2)NC(=O)[C@H](CO)NC(=O)[C@H](CC(C)C)NC(=O)[C@H](Cc2ccccc2)NC(=O)[C@H](CCCCN)NC(=O)[C@H]([C@@H](C)O)NC(=O)CNC(=O)[C@@H](NC(=O)CNC(=O)[C@H](CCCNC(=N)N)NC(=O)[C@@H](N)CCCCN)CSSC[C@@H](C(=O)O)NC(=O)[C@H](CO)NC(=O)[C@H](Cc2ccccc2)NC(=O)[C@H](CCCCN)NC(=O)[C@H](Cc2ccc(O)cc2)NC(=O)[C@H](CO)NC1=O [Peptide (17)] (I: H-KRGCGTKFLSYKFSC-OH / II: H-KRGCGTKFLSYKFSC-OH; disulfide I:4-II:15, I:15-II:4) | inhibition at 1 µg/mL (human type II PLA₂ [2]; peptide 1 µg/ml, heparin 10 µg/ml): 69%; remaining activity at 1 µg/mL (human type II PLA₂ [2]; peptide 1 µg/ml, heparin 10 µg/ml, read-out: PLA₂enzyme activity (%)): 31%; inhibition at 5 µg/mL (human type II PLA₂ [2]; heparin 10 µg/ml): 91%; remaining activity at 5 µg/mL (human type II PLA₂ [2]; [5]): 9%; inhibition at 10 µg/mL (human type II PLA₂ [2]; heparin 10 µg/ml): 94%; remaining activity at 10 µg/mL (human type II PLA₂ [2]; [5]): 6%

Source: patent publication EP0687685A1, “PHYSIOLOGICALLY ACTIVE PEPTIDE” (TEIJIN LIMITED, priority 1993, dated 1994)
